Reference: ChEMBL document CHEMBL1201862, “PubChem BioAssay data set” (2004)
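Test compounds were applied to cells in 96-well plates for 48 hours at 5 doses. Here, GI50 denotes the concentration required for 50% inhibition of growth.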 The source made the active and inactive calls. Cut-off read from the data, not from the text of the source: active = GI50 up to about 1.1 µM and inactive = higher.

Columns and labels:
Assay in all cases: NCI tumour cell line growth inhibition, 48 h
EKVX = tested on: EKVX
Hs-578T = tested on: Hs-578T
SK-MEL-28 = tested on: SK-MEL-28
HCC 2998 = tested on: HCC 2998
SK-OV-3 = tested on: SK-OV-3
NCI-H226 = tested on: NCI-H226
HT-29 = tested on: HT-29
RPMI-8226 = tested on: RPMI-8226
K562 = tested on: K562
MDA-N = tested on: MDA-N
M14 = tested on: M14
HL-60 = tested on: HL-60
PC-3 = tested on: PC-3
SNB-19 = tested on: SNB-19
CAKI-1 = tested on: CAKI-1
SF-539 = tested on: SF-539
MDA-MB-435 = tested on: MDA-MB-435
MCF7 = tested on: MCF7
TK-10 = tested on: TK-10
CCRF-CEM = tested on: CCRF-CEM

| SMILES | GI50 (EKVX) | GI50 (Hs-578T) | GI50 (SK-MEL-28) | GI50 (HCC 2998) | GI50 (SK-OV-3) | GI50 (NCI-H226) | GI50 (HT-29) | GI50 (RPMI-8226) | GI50 (K562) | GI50 (MDA-N) | GI50 (M14) | GI50 (HL-60) | GI50 (PC-3) | GI50 (SNB-19) | GI50 (CAKI-1) | GI50 (SF-539) | GI50 (MDA-MB-435) | GI50 (MCF7) | GI50 (TK-10) | GI50 (CCRF-CEM) |
| --- | --- | --- | --- | --- | --- | --- | --- | --- | --- | --- | --- | --- | --- | --- | --- | --- | --- | --- | --- | --- |
| O=C(/C=C/c1ccc(O)c(O)c1)OCCCc1ccccc1 | 25.8 µM (inactive) | 28.4 µM (inactive) | 15.3 µM (inactive) | 20.4 µM (inactive) | 23.6 µM (inactive) | 16 µM (inactive) | 21.9 µM (inactive) | 13.1 µM (inactive) | 21.3 µM (inactive) | 11.8 µM (inactive) | 7.78 µM (inactive) | 1.07 µM (active) | 8.85 µM (inactive) | 15 µM (inactive) | 20.6 µM (inactive) | 2.45 µM (inactive) | 9.44 µM (inactive) | 12 µM (inactive) | – | – |
| Cc1nn(CN2CCN(C)CC2)c(=S)n1/N=C/c1ccc(-c2ccc(Cl)cc2Cl)o1 | 14.8 µM (inactive) | > 100 µM (inactive) | > 100 µM (inactive) | > 100 µM (inactive) | > 100 µM (inactive) | 29.4 µM (inactive) | 89.1 µM (inactive) | – | 50.8 µM (inactive) | 50.5 µM (inactive) | > 100 µM (inactive) | 32.7 µM (inactive) | 68.7 µM (inactive) | > 100 µM (inactive) | – | 35.9 µM (inactive) | 36.1 µM (inactive) | 33.4 µM (inactive) | 43.9 µM (inactive) | – |
| S=C(Nc1ccc2c(c1)oc1ccccc12)c1cccs1 | 38.5 µM (inactive) | 29.8 µM (inactive) | > 100 µM (inactive) | > 100 µM (inactive) | 37.9 µM (inactive) | > 100 µM (inactive) | 3.66 µM (inactive) | – | – | > 100 µM (inactive) | > 100 µM (inactive) | > 100 µM (inactive) | > 100 µM (inactive) | 38.1 µM (inactive) | 52.8 µM (inactive) | 26.2 µM (inactive) | > 100 µM (inactive) | 24.1 µM (inactive) | > 100 µM (inactive) | > 100 µM (inactive) |
| N#CC(C#N)=Cc1c[nH]c(=O)[nH]c1=O | > 100 µM (inactive) | > 100 µM (inactive) | > 100 µM (inactive) | – | > 100 µM (inactive) | > 100 µM (inactive) | > 100 µM (inactive) | > 100 µM (inactive) | > 100 µM (inactive) | > 100 µM (inactive) | > 100 µM (inactive) | > 100 µM (inactive) | > 100 µM (inactive) | > 100 µM (inactive) | > 100 µM (inactive) | > 100 µM (inactive) | > 100 µM (inactive) | > 100 µM (inactive) | > 100 µM (inactive) | 17.8 µM (inactive) |
| O=C1O/C(=C\c2ccccc2)N(c2ccccc2)C1=O | > 100 µM (inactive) | > 100 µM (inactive) | > 100 µM (inactive) | > 100 µM (inactive) | > 100 µM (inactive) | > 100 µM (inactive) | > 100 µM (inactive) | > 100 µM (inactive) | > 100 µM (inactive) | > 100 µM (inactive) | > 100 µM (inactive) | > 100 µM (inactive) | > 100 µM (inactive) | > 100 µM (inactive) | > 100 µM (inactive) | – | > 100 µM (inactive) | 51.8 µM (inactive) | > 100 µM (inactive) | > 100 µM (inactive) |
| C#CCNC(Cc1c[nH]cn1)C(=O)O (stereo not drawn) | > 100 µM (inactive) | > 100 µM (inactive) | > 100 µM (inactive) | – | > 100 µM (inactive) | > 100 µM (inactive) | > 100 µM (inactive) | > 100 µM (inactive) | > 100 µM (inactive) | > 100 µM (inactive) | > 100 µM (inactive) | 89.3 µM (inactive) | > 100 µM (inactive) | > 100 µM (inactive) | > 100 µM (inactive) | > 100 µM (inactive) | > 100 µM (inactive) | > 100 µM (inactive) | > 100 µM (inactive) | > 100 µM (inactive) |
| Cc1nc(C(N)=S)sc1C(=O)CC(=O)C(=O)Nc1ccc(Br)cc1 | > 100 µM (inactive) | > 100 µM (inactive) | > 100 µM (inactive) | – | > 100 µM (inactive) | > 100 µM (inactive) | > 100 µM (inactive) | > 100 µM (inactive) | > 100 µM (inactive) | > 100 µM (inactive) | > 100 µM (inactive) | > 100 µM (inactive) | > 100 µM (inactive) | – | > 100 µM (inactive) | > 100 µM (inactive) | > 100 µM (inactive) | > 100 µM (inactive) | > 100 µM (inactive) | > 100 µM (inactive) |
| CCN(CC)C(=S)N/N=C/c1cc([N+](=O)[O-])ccc1O | 4.56 µM (inactive) | 53.2 µM (inactive) | 5.11 µM (inactive) | 8.53 µM (inactive) | 3.95 µM (inactive) | 2.31 µM (inactive) | 5.45 µM (inactive) | – | 3.18 µM (inactive) | 5.43 µM (inactive) | 4.17 µM (inactive) | 1.69 µM (inactive) | 4.92 µM (inactive) | 9.16 µM (inactive) | – | 6.15 µM (inactive) | 5.48 µM (inactive) | 2.22 µM (inactive) | 8.87 µM (inactive) | 1.26 µM (inactive) |
| Clc1ccc(-c2cn3c(nc4ccccc43)c(/C=C/c3cccs3)n2)cc1 | – | 43.8 µM (inactive) | > 100 µM (inactive) | > 100 µM (inactive) | > 100 µM (inactive) | > 100 µM (inactive) | > 100 µM (inactive) | 36.5 µM (inactive) | 49.1 µM (inactive) | > 100 µM (inactive) | > 100 µM (inactive) | > 100 µM (inactive) | 44.9 µM (inactive) | > 100 µM (inactive) | – | > 100 µM (inactive) | 37.3 µM (inactive) | 7.08 µM (inactive) | 86.1 µM (inactive) | 45 µM (inactive) |
| Fc1c(F)c(C(F)(F)F)c(F)c(F)c1N/N=C\c1c[nH]c2ccccc12 | 2.84 µM (inactive) | 8.38 µM (inactive) | 6.82 µM (inactive) | 1.85 µM (inactive) | 1.39 µM (inactive) | – | 2.48 µM (inactive) | 2.81 µM (inactive) | 2.87 µM (inactive) | 1.72 µM (inactive) | 1.62 µM (inactive) | 2.54 µM (inactive) | 2.13 µM (inactive) | 2.86 µM (inactive) | 2.55 µM (inactive) | – | 1.51 µM (inactive) | 2.69 µM (inactive) | 4.48 µM (inactive) | 1.23 µM (inactive) |
| O=C1C/C(=C\c2ccccc2)C(=O)c2ccccc2N1 | 24.1 µM (inactive) | 60.1 µM (inactive) | 29.5 µM (inactive) | 19 µM (inactive) | 35.2 µM (inactive) | 24.3 µM (inactive) | 18.4 µM (inactive) | – | – | 22.9 µM (inactive) | 23.2 µM (inactive) | 20.8 µM (inactive) | 23.9 µM (inactive) | 14.9 µM (inactive) | 18.4 µM (inactive) | 20.2 µM (inactive) | 23.3 µM (inactive) | 81.7 µM (inactive) | 32.9 µM (inactive) | 16.7 µM (inactive) |
| Cc1cc2nc(N3C(=O)/C(=C/Cc4ccco4)N=C3c3ccccc3)sc2cc1C | 20.7 µM (inactive) | 39.3 µM (inactive) | 64.6 µM (inactive) | 24.6 µM (inactive) | 92 µM (inactive) | – | 23.7 µM (inactive) | 23.7 µM (inactive) | 22.8 µM (inactive) | 9.98 µM (inactive) | 35.6 µM (inactive) | 23 µM (inactive) | 12.1 µM (inactive) | 49.7 µM (inactive) | 44.4 µM (inactive) | 41.1 µM (inactive) | 7.53 µM (inactive) | 13.4 µM (inactive) | 84.1 µM (inactive) | 9.18 µM (inactive) |
| O=C1/C(=C\c2ccc(Cl)cc2Cl)Sc2scc(-c3ccc(O)c(O)c3)[n+]21 | 19.9 µM (inactive) | 27.2 µM (inactive) | 15.9 µM (inactive) | 17 µM (inactive) | 15.8 µM (inactive) | 15.5 µM (inactive) | 16.7 µM (inactive) | – | – | 17.5 µM (inactive) | 16.3 µM (inactive) | 8.77 µM (inactive) | 13.7 µM (inactive) | 17.6 µM (inactive) | 20.1 µM (inactive) | 17.1 µM (inactive) | 12.2 µM (inactive) | 16.2 µM (inactive) | 12.7 µM (inactive) | 17.7 µM (inactive) |
| N#Cc1nc(Cc2cccs2)oc1N | > 100 µM (inactive) | > 100 µM (inactive) | > 100 µM (inactive) | – | > 100 µM (inactive) | – | > 100 µM (inactive) | > 100 µM (inactive) | > 100 µM (inactive) | > 100 µM (inactive) | > 100 µM (inactive) | > 100 µM (inactive) | > 100 µM (inactive) | > 100 µM (inactive) | > 100 µM (inactive) | – | > 100 µM (inactive) | > 100 µM (inactive) | > 100 µM (inactive) | 47.5 µM (inactive) |
| COC(=O)C1[C@H](C(=O)OC)C1(Br)CBr (stereo partly drawn) | > 100 µM (inactive) | > 100 µM (inactive) | > 100 µM (inactive) | > 100 µM (inactive) | > 100 µM (inactive) | > 100 µM (inactive) | > 100 µM (inactive) | > 100 µM (inactive) | > 100 µM (inactive) | > 100 µM (inactive) | > 100 µM (inactive) | > 100 µM (inactive) | > 100 µM (inactive) | > 100 µM (inactive) | > 100 µM (inactive) | > 100 µM (inactive) | > 100 µM (inactive) | > 100 µM (inactive) | > 100 µM (inactive) | – |
